Test results taken from patent US20260041620A1, “NOVEL AMINO ACID BASED SALTS, COMPOSITIONS AND METHODS FOR TREATING SKIN AND IMPROVING SKIN REJUVENATION AND LONGEVITY” (Sytheon Ltd, priority 2023, published 2026).
Like-named read-outs stand apart in the source and are kept apart here.

Columns and labels:
HDAC 5 = HDAC 5 (Homo sapiens, UniProt Q9UQL6)
Procedure: (§1) Test materials were stored at room temperature and stock solutions were prepared at 20 mg/ml in DMSO. Further dilutions were made in sterile distilled water immediately before being added to the reaction mixture containing a substrate, and the reaction was triggered by the addition of purified HDAC enzymes, Double distilled water was the negative control and trichostatin (1.5 ug/ml) was used as a positive control for validation of each study. The test procedure was as directed in the assay kits. The products of the reactions were measured by fluorometry at ex/em 350/450 nm using multi-well plate fluorometer Cytofluor 4000 (Applied Biosystem, Foster City, CA) or using SpectraMax i3× Multi-Mode Detection Platform from Molecular Devices (Sunnyvale, CA).
(§2) Statistical significance was assessed with a two-tail Student test. Deviations of ≤20% as compared to water control with p values below 0.05 were considered statistically significant.

FABP-3 = target: T1, FABP-3 (Homo sapiens, UniProt P05413); test: FABP-3 ELISA inhibitory assay; format: biochemical
T1 construct: purchased Neovateinbio PT-452

FAAH = target: T2, FAAH (Homo sapiens, UniProt O00519); test: FAAH fluorescence-based inhibitory assay; format: biochemical
T2 sequence (O00519 1-579): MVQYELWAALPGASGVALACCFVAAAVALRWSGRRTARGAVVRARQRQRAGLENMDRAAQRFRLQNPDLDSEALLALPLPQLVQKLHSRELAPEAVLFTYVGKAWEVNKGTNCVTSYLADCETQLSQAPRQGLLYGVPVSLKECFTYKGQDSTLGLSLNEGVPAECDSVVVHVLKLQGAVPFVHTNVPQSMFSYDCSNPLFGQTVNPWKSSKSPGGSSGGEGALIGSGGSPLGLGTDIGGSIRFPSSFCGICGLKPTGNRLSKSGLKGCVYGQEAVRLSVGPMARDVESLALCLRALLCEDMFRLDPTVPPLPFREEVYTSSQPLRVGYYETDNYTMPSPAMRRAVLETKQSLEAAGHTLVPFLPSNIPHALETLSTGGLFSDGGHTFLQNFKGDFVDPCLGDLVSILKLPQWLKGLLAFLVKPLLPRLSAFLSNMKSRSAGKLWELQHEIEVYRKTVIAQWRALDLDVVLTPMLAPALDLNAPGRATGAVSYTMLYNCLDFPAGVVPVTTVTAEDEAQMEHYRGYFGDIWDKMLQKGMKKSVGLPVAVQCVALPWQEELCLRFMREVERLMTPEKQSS

HDAC10 = target: T3, HDAC10 (Homo sapiens, UniProt Q969S8)
T3 sequence (Q969S8 1-669): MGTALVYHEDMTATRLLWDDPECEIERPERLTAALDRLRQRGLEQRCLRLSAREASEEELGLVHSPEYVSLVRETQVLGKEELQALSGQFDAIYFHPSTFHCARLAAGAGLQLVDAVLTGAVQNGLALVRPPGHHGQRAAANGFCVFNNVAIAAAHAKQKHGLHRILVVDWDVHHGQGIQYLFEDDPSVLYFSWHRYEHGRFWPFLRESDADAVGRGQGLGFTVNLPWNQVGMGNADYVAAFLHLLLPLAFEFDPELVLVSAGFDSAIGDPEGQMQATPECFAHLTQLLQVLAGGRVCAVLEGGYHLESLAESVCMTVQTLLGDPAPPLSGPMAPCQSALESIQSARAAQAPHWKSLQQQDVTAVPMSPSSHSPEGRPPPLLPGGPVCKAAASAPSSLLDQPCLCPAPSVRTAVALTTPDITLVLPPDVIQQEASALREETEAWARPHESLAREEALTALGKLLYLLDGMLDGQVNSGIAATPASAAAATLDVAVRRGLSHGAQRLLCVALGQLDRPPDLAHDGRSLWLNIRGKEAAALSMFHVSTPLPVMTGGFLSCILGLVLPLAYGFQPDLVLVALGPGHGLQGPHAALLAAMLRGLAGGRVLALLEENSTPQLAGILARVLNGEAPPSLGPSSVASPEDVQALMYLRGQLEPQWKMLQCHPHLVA
Procedure: as §1, §2

HDAC 11 = target: T4, HDAC 11 (Homo sapiens, UniProt Q96DB2); test: HDAC 11 fluorogenic assay kit; format: biochemical
T4 construct: purchased BPS Biosciences 50687
T4 sequence (Q96DB2 1-347): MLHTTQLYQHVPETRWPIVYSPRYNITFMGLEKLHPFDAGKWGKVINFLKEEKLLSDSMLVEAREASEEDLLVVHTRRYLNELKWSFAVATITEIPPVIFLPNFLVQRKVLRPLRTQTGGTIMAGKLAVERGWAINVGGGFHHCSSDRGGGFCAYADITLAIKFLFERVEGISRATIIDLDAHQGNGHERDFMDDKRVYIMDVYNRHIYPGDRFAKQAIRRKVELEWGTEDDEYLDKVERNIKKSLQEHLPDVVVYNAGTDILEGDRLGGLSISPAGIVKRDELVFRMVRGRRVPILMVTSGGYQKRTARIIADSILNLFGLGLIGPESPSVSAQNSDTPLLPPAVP
Procedure: as §1, §2

MAGL = target: T5, MAGL (Homo sapiens, UniProt Q99685); test: MAGL inhibitory assay; format: biochemical
T5 construct: purchased Cayman 10007812
T5 sequence (Q99685 1-303): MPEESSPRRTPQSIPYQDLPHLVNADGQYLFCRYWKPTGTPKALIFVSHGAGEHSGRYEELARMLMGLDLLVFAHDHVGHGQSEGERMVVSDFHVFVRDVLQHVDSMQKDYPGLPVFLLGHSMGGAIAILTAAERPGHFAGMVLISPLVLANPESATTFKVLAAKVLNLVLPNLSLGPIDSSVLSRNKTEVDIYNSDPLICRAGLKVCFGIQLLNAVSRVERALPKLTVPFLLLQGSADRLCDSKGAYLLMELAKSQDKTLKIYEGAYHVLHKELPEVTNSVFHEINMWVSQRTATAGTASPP
Procedure: Each study was performed in duplicate and the results averaged.
The final concentration in each well was 10 μl of sample, 5.6 μM MAGL (Cayman Catalog #10007812) and 23.6 μM 2-Arachidonoyl Glycerol (Cayman catalog #62160).

HDAC2 = HDAC2 (Homo sapiens, UniProt Q92769)
Procedure: as §1, §2

HDAC 3 = HDAC 3 (Homo sapiens, UniProt O15379)
Procedure: as §1, §2

HDAC1 = HDAC1 (Homo sapiens, UniProt Q13547); test: HDAC 1 fluorogenic assay kit
Procedure: as §1, §2

HDAC 4 = HDAC 4 (Homo sapiens, UniProt P56524); test: HDAC 4 fluorogenic assay kit
Sequence of HDAC 4 (P56524 whole entry): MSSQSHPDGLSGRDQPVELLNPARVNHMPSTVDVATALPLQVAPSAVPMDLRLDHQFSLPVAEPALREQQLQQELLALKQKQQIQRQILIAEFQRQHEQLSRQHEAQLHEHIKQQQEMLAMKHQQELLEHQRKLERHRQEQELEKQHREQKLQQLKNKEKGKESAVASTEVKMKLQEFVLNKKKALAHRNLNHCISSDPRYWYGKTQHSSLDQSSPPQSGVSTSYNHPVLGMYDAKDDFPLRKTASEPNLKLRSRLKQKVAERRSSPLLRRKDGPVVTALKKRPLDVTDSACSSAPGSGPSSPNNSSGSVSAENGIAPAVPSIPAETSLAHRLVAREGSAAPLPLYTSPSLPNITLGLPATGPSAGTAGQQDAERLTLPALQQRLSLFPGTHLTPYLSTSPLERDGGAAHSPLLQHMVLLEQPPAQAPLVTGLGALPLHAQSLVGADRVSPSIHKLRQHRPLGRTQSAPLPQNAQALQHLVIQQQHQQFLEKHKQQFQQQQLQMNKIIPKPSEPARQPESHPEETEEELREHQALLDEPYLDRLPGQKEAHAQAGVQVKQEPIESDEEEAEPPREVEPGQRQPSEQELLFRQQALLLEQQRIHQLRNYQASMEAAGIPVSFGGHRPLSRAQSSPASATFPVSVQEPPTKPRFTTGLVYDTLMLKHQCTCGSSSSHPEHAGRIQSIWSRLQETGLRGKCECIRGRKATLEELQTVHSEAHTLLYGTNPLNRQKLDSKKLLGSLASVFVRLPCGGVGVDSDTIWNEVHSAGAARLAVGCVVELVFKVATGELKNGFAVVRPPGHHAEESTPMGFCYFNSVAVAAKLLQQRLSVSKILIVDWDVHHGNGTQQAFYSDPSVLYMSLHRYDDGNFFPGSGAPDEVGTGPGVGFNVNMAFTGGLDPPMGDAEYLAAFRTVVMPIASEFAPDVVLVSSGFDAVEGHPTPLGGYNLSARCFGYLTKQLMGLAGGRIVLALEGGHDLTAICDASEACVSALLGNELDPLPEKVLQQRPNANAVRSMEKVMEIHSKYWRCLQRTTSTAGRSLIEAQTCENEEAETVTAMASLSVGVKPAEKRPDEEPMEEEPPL
Procedure: as §1, §2

Sequence of HDAC1 (Q13547 whole entry): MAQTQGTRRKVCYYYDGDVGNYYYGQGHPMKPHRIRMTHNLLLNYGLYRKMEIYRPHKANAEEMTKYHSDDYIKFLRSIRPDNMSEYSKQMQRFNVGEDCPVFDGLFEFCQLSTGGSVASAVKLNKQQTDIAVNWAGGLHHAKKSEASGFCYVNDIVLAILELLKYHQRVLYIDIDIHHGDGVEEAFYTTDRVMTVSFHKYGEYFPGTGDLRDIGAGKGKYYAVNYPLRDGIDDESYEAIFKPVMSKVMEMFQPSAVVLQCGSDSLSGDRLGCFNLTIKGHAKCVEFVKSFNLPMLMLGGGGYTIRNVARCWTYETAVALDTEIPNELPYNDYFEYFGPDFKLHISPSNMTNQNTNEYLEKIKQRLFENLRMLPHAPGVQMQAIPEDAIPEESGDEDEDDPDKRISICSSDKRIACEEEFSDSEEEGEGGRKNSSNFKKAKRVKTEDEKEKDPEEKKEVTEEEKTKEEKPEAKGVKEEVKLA
Sequence of HDAC 3 (O15379 whole entry): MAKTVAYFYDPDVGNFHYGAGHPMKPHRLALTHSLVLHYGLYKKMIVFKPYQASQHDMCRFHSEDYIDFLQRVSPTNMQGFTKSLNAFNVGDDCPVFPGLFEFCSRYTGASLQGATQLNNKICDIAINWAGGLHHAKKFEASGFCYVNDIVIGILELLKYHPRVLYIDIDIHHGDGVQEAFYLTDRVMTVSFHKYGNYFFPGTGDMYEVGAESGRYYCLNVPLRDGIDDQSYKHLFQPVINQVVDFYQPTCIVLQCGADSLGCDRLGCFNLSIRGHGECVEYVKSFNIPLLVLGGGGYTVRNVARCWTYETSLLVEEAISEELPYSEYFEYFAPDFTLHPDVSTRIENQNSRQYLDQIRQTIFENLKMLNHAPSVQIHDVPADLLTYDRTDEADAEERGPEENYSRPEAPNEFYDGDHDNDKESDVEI
Sequence of HDAC 3 (Q9Y618 395-489 partner limits assumed): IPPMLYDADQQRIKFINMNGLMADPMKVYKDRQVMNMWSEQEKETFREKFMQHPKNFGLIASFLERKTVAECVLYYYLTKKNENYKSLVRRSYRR
Sequence of HDAC2 (Q92769 whole entry): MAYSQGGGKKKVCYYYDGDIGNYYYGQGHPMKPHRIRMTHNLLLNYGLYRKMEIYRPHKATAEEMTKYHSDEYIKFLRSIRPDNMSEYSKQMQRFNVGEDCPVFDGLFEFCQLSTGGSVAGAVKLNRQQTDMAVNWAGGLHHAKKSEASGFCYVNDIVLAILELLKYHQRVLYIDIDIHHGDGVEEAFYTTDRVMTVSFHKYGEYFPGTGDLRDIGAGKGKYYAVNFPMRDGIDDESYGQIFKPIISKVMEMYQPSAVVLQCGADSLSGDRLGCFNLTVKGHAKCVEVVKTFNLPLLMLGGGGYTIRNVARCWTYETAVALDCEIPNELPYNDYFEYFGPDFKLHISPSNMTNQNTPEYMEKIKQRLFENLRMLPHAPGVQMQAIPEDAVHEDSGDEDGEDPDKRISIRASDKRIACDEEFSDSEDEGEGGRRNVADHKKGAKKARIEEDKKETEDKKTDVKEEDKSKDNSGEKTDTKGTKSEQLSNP
Sequence of HDAC 5 (Q9UQL6 whole entry): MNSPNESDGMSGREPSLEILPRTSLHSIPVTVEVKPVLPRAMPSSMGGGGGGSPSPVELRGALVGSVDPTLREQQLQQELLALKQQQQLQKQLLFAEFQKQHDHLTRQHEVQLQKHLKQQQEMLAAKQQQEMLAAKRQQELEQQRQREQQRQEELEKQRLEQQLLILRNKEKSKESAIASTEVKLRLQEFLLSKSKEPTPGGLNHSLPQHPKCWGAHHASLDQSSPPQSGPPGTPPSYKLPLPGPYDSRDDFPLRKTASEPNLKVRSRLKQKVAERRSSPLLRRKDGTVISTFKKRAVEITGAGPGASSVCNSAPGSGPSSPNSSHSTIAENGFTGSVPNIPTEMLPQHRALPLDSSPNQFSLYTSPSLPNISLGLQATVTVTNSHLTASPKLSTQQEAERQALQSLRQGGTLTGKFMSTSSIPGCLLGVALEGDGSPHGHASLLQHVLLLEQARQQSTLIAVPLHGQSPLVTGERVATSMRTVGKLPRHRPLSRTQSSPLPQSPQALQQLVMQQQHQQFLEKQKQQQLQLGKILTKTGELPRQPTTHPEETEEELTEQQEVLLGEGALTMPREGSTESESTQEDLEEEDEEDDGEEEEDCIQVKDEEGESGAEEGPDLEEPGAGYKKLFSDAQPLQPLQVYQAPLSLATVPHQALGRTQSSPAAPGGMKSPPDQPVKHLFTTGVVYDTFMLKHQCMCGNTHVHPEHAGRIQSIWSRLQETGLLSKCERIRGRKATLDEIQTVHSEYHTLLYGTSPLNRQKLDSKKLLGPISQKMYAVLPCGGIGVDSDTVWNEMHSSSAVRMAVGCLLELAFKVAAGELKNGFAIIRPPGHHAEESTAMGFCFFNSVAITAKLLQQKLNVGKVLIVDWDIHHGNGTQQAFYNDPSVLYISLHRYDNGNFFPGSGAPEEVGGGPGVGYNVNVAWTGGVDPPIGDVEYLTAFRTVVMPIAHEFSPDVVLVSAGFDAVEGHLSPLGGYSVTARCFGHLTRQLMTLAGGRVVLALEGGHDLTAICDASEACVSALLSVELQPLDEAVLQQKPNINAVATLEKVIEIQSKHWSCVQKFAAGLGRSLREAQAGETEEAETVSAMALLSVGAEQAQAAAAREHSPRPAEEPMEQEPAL
T1 sequence (P05413 whole entry): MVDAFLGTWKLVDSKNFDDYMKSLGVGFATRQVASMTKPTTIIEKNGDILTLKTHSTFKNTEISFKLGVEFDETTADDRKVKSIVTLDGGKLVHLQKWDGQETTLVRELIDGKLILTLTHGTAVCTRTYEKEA

| Compound | HDAC 5 activity, % of water-treated controls (HDAC 5; 25 ug/ml) | HDAC 5 activity, % of water-treated controls (HDAC 5; 50 ug/ml) | HDAC 5 activity, % of water-treated controls (HDAC 5; 100 ug/ml) | HDAC 5 activity, % of water-treated controls (HDAC 5; 200 ug/ml) | FABP-3 IC50 (FABP-3) | FAAH IC50 (FAAH) | HDAC 10 activity, % of water-treated controls (HDAC10; 25 ug/ml) | HDAC 10 activity, % of water-treated controls (HDAC10; 50 ug/ml) | HDAC 10 activity, % of water-treated controls (HDAC10; 100 ug/ml) | HDAC 10 activity, % of water-treated controls (HDAC10; 200 ug/ml) | HDAC 11 activity, % of water-treated controls (HDAC 11; 25 ug/ml) | HDAC 11 activity, % of water-treated controls (HDAC 11; 50 ug/ml) | HDAC 11 activity, % of water-treated controls (HDAC 11; 100 ug/ml) | HDAC 11 activity, % of water-treated controls (HDAC 11; 200 ug/ml) | MAGL IC50 (MAGL) | HDAC 2 activity, % of water-treated controls (HDAC2; 25 ug/ml) | HDAC 2 activity, % of water-treated controls (HDAC2; 50 ug/ml) | HDAC 2 activity, % of water-treated controls (HDAC2; 100 ug/ml) | HDAC 2 activity, % of water-treated controls (HDAC2; 200 ug/ml) | HDAC 3 activity, % of water-treated controls (HDAC 3; 50 ug/ml) | other results |
| --- | --- | --- | --- | --- | --- | --- | --- | --- | --- | --- | --- | --- | --- | --- | --- | --- | --- | --- | --- | --- | --- |
| CCCC(=O)N[C@@H](CC(C)C)C(=O)[O-].CCCC(=O)N[C@@H](CC(C)C)C(=O)[O-].[Zn+2] [Zn di-(n-butyryl leucinate), Zinc di-(n-butyryl leucinate)] | 128% | 91% | 50% | 26% | 630.9 µg/mL | 41.3 µg/mL | 13% | 10% | 8% | 6% | 100% | 93% | 71% | 39% | 88.3 µg/mL | 39% | 37% | 31% | 28% | – | HDAC 10 activity, % of water-treated controls (HDAC10; 5 ug/ml): 21%; HDAC 11 activity, % of water-treated controls (HDAC 11; 5 ug/ml): 102% |
| CCCC(=O)NCCCCC(NC(=O)CCC)C(=O)[O-].CCCC(=O)NCCCCC(NC(=O)CCC)C(=O)[O-].[Ca+2] (centres unmarked) [Ca di-(di-n-butyryl lysinate), calcium di-(di-n-butyryl lysinate)] | 128% | 123% | 117% | 88% | 188.6 µg/mL | 213.6 µg/mL | 105% | 103% | 104% | 90% | 106% | 100% | 101% | 97% | 37.6 µg/mL | 96% | 90% | 97% | 94% | 120% | HDAC 3 activity, % of water-treated controls (HDAC 3; 25 ug/ml): 116%; HDAC 3 activity, % of water-treated controls (HDAC 3; 100 ug/ml): 121%; HDAC 3 activity, % of water-treated controls (HDAC 3; 200 ug/ml): 119%; HDAC 5 activity, % of water-treated controls (HDAC 5; 5 ug/ml): 144%; HDAC 1 activity, % of water-treated controls (HDAC1; 25 ug/ml): 80%; HDAC 1 activity, % of water-treated controls (HDAC1; 50 ug/ml): 89%; HDAC 1 activity, % of water-treated controls (HDAC1; 100 ug/ml): 135% |
| CCCC(=O)[O-].[Na+] [Sodium butyrate, reference compound] | – | 38% | 26% | 15% | – | – | – | 100% | 103% | 93% | – | 89% | 87% | 84% | – | – | 89% | 93% | 94% | 98% | HDAC 3 activity, % of water-treated controls (HDAC 3; 100 ug/ml): 82%; HDAC 3 activity, % of water-treated controls (HDAC 3; 200 ug/ml): 60%; HDAC 3 activity, % of water-treated controls (HDAC 3; 400 ug/ml): 49%; HDAC 5 activity, % of water-treated controls (HDAC 5; 400 ug/ml): 11%; IC50 (FAAH): 7.31 mM; HDAC 10 activity, % of water-treated controls (HDAC10; 400 ug/ml): 61%; HDAC 11 activity, % of water-treated controls (HDAC 11; 400 ug/ml): 91%; IC50 (MAGL): 5.5 mM; HDAC 4 activity, % of water-treated controls (HDAC 4; 25 ug/ml): 93%; HDAC 4 activity, % of water-treated controls (HDAC 4; 50 ug/ml): 96%; HDAC 4 activity, % of water-treated controls (HDAC 4; 100 ug/ml): 96%; HDAC 1 activity, % of water-treated controls (HDAC1; 50 ug/ml): 109%; HDAC 1 activity, % of water-treated controls (HDAC1; 100 ug/ml): 46%; HDAC 1 activity, % of water-treated controls (HDAC1; 200 ug/ml): 39%; HDAC 1 activity, % of water-treated controls (HDAC1; 400 ug/ml): 38%; HDAC 2 activity, % of water-treated controls (HDAC2; 400 ug/ml): 95% |
